Laboratory results published in paper PMC4457528, “Identification of Novel Small Molecule Inhibitors of Oncogenic RET Kinase” (PLoS ONE, 2015).
Where two headings read alike, the source gives them in different places.

Tests used:
Assay in all cases: KinomeScan kinase panel, single concentration 10 µM
Type in all cases: binding
KinomeScan kinase panel [1] = target: T1, KinomeScan kinase panel (Homo sapiens, UniProt P46734); settings: MEK3, 10 µM; read-out: score (%)
T1 construct: purchased DiscoveRx (KinomeScan)
T1 sequence (P46734 1-347): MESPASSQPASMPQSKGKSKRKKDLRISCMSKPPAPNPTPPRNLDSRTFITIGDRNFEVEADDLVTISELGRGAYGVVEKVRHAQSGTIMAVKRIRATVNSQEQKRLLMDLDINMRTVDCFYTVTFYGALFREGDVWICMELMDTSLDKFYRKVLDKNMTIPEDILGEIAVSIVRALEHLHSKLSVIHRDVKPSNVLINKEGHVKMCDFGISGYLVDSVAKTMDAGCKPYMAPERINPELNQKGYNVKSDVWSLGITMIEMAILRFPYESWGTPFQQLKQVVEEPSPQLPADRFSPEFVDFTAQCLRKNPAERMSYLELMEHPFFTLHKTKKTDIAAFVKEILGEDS

KinomeScan kinase panel [2] = target: T2, KinomeScan kinase panel (Homo sapiens, UniProt P08631); settings: HCK, 10 µM; read-out: score (%)
T2 construct: purchased DiscoveRx (KinomeScan)

KinomeScan kinase panel [3] = target: T3, KinomeScan kinase panel (Homo sapiens, UniProt Q9P1W9); settings: PIM2, 10 µM; read-out: score (%)
T3 construct: purchased DiscoveRx (KinomeScan)

KinomeScan kinase panel [4] = target: T4, KinomeScan kinase panel (Homo sapiens, UniProt P43405); settings: 10 µM
T4 construct: purchased DiscoveRx (KinomeScan)

KinomeScan kinase panel [5] = target: T5, KinomeScan kinase panel (Homo sapiens, UniProt P53355); settings: DAPK1, 10 µM; read-out: score (%)
T5 construct: purchased DiscoveRx (KinomeScan)

KinomeScan kinase panel [6] = target: T6, KinomeScan kinase panel (Homo sapiens, UniProt Q9UF33); settings: EPHA6, 10 µM; read-out: score (%)
T6 construct: purchased DiscoveRx (KinomeScan)
T6 sequence (Q9UF33 23-1036): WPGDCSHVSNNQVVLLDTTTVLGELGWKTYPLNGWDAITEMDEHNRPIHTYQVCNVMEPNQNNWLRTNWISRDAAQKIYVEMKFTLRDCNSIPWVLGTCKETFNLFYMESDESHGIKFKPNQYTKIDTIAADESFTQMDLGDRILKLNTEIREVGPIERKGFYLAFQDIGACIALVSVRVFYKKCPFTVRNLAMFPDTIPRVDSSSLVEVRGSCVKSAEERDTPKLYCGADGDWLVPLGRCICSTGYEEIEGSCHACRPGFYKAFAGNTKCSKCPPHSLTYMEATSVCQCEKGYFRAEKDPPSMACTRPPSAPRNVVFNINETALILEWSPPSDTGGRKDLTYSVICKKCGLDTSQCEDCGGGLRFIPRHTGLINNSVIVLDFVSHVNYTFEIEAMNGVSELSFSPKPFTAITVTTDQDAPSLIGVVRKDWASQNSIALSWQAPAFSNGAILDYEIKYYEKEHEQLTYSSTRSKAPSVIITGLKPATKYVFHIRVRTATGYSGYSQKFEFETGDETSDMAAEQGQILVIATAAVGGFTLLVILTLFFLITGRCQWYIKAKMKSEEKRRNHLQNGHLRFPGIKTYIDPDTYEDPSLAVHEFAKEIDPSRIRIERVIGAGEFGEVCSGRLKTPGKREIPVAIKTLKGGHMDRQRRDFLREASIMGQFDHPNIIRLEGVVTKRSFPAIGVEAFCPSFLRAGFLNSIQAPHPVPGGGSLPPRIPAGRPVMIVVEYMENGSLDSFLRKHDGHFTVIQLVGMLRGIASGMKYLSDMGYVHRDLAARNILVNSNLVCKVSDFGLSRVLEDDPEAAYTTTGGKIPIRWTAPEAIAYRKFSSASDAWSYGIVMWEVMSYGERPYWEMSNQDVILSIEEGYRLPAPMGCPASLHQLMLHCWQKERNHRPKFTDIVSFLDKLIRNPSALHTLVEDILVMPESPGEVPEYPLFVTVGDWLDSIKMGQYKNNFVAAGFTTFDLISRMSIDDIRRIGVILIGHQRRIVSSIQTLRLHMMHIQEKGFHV

KinomeScan kinase panel [7] = target: T7, KinomeScan kinase panel (Homo sapiens, UniProt P17612); settings: PKAC-alpha, 10 µM; read-out: score (%)
T7 construct: purchased DiscoveRx (KinomeScan)

KinomeScan kinase panel [8] = target: T8, KinomeScan kinase panel (Homo sapiens, UniProt Q86V86); settings: PIM3, 10 µM; read-out: score (%)
T8 construct: purchased DiscoveRx (KinomeScan)

KinomeScan kinase panel [9] = target: T9, KinomeScan kinase panel (Homo sapiens, UniProt P04049); settings: read-out: score (%)
T9 construct: purchased DiscoveRx (KinomeScan)

KinomeScan kinase panel [10] = target: T10, KinomeScan kinase panel (Homo sapiens, UniProt Q14289); settings: read-out: score (%)
T10 construct: purchased DiscoveRx (KinomeScan)
T10 sequence (Q14289 whole entry): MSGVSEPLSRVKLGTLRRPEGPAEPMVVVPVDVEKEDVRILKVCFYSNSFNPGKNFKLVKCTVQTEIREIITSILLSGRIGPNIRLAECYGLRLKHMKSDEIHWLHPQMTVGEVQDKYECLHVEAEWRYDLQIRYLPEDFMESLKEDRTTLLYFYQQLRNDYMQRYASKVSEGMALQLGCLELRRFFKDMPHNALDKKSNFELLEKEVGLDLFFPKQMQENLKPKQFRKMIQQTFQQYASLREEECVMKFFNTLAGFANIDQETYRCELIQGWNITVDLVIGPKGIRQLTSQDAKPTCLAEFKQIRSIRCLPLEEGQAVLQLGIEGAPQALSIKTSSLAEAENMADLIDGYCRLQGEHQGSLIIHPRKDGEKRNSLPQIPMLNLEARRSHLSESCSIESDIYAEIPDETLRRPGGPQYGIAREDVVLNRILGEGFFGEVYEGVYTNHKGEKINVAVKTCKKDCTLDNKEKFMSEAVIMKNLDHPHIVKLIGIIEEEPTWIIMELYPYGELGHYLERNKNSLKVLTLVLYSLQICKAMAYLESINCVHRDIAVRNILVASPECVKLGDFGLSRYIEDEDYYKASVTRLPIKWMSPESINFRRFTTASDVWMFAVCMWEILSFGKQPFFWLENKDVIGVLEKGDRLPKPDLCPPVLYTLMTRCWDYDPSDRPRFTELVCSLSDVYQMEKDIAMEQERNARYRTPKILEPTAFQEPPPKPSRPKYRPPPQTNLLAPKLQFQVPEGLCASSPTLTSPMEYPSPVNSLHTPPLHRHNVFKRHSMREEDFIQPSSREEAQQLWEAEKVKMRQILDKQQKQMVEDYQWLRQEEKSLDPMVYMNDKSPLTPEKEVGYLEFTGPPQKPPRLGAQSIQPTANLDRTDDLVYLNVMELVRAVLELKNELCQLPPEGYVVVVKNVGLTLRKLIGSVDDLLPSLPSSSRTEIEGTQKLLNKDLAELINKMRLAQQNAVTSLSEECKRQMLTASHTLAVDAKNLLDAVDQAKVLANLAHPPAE

T3 sequence (Q9P1W9 whole entry): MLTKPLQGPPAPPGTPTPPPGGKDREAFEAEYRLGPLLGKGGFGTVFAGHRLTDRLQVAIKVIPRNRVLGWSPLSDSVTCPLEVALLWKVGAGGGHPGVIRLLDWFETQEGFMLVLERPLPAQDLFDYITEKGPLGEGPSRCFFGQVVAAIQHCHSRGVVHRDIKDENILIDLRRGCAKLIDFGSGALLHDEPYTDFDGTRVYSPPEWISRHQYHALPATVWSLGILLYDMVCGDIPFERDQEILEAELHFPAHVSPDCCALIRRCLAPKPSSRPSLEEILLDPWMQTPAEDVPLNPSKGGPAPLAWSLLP
T9 sequence (P04049 whole entry): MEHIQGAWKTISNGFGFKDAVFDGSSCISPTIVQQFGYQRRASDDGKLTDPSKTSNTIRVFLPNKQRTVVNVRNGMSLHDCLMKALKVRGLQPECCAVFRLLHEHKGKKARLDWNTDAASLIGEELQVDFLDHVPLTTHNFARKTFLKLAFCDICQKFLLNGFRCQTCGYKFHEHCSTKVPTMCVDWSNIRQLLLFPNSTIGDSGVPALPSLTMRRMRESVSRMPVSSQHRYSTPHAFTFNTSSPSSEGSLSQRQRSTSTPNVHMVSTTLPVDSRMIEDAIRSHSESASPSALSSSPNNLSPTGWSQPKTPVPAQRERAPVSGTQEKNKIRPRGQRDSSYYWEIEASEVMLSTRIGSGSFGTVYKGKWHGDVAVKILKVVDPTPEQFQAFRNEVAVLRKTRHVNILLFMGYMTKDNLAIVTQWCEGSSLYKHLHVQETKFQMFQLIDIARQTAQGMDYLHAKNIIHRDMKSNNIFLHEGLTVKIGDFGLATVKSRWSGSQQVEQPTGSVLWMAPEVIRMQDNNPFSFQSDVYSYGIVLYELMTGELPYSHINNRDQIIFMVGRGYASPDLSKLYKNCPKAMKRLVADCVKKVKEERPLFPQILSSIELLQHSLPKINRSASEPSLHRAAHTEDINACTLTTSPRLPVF
T2 sequence (P08631 whole entry): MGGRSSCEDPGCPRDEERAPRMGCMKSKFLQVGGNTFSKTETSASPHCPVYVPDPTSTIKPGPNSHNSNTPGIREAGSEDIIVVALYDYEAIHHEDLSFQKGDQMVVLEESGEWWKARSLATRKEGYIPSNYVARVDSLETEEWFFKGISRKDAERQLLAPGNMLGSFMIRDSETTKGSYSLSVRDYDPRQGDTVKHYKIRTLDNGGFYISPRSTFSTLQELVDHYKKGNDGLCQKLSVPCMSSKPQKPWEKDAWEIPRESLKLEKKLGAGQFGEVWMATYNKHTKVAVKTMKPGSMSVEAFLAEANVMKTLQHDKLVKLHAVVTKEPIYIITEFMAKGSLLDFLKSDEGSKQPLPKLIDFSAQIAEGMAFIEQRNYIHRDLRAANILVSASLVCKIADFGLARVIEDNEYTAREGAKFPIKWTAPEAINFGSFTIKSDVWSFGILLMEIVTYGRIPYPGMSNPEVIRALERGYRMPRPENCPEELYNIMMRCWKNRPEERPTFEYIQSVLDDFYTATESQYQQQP
T5 sequence (P53355 whole entry): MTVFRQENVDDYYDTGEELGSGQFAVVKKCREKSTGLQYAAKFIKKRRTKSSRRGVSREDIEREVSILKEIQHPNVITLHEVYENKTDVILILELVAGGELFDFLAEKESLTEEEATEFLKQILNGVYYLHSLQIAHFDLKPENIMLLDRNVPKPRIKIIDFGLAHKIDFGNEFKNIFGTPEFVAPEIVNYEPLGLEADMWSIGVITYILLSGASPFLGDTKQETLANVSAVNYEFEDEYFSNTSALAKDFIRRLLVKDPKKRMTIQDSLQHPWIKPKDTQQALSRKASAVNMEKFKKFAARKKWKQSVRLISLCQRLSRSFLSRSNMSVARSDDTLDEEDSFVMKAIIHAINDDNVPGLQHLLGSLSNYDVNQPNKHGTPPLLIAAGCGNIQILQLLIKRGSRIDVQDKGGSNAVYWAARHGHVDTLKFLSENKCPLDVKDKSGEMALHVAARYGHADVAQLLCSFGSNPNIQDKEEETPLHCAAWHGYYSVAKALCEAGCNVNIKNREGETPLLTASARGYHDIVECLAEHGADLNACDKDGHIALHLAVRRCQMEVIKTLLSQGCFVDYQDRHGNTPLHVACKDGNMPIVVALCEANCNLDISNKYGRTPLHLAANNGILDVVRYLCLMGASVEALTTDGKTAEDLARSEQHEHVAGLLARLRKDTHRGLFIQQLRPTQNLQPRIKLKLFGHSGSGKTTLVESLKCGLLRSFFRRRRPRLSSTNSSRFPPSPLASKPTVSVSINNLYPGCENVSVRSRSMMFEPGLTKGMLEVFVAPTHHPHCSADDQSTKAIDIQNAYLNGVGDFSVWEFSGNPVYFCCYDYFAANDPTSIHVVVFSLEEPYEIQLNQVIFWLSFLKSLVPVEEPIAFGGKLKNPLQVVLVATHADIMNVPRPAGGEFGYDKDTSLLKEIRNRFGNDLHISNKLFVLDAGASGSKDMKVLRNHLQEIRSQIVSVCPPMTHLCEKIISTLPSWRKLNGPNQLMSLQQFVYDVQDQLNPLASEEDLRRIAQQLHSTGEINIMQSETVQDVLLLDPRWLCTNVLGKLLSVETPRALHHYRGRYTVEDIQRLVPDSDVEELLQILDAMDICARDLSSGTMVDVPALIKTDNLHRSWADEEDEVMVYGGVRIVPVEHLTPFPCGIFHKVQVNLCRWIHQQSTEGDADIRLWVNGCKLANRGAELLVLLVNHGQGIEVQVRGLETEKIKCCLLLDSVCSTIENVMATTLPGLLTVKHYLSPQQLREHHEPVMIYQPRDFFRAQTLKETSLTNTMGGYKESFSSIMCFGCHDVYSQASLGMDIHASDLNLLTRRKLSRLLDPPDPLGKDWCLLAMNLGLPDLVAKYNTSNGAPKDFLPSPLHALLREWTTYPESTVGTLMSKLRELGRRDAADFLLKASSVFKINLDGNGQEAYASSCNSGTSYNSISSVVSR

Row | SMILES | remaining binding at 10 µM (KinomeScan kinase panel [1]) | remaining binding at 10 µM (KinomeScan kinase panel [2]) | remaining binding at 10 µM (KinomeScan kinase panel [3]) | score (%) (KinomeScan kinase panel [4]; kinase SYK) | remaining binding at 10 µM (KinomeScan kinase panel [5]) | remaining binding at 10 µM (KinomeScan kinase panel [6]) | remaining binding at 10 µM (KinomeScan kinase panel [7]) | remaining binding at 10 µM (KinomeScan kinase panel [8]) | remaining binding at 10 µM (KinomeScan kinase panel [9]; RAF1, 10 µM) | remaining binding at 10 µM (KinomeScan kinase panel [10]; PYK2, 10 µM) | remaining binding at 10 µM (KinomeScan kinase panel [9]; kinase RAF1, 10 µM) | remaining binding at 10 µM (KinomeScan kinase panel [10]; kinase PYK2, 10 µM) | score (%) (KinomeScan kinase panel [4]; SYK) | remaining binding at 10 µM (KinomeScan kinase panel [10]; PTK2B, 10 µM)
1 | CCN1CCN(Cc2ccc(NC(=O)c3ccc(C)c(NC(=O)c4cncc(-c5cccs5)c4)c3)cc2C(F)(F)F)CC1 [ALW-II-41-27] | > 30% | 0.2% | 22% | 4.2% | > 30% | 28% | 7.4% | > 30% | 1.4% | 2.4% |  |  |  | 
2 | CCN1CCN(Cc2ccc(NC(=O)c3ccc(C)c(C#Cc4cccnc4)c3)cc2C(F)(F)F)CC1 [XMD15-44] | > 30% | 0.05% | 100% | 13% | > 30% | 0% | 8.4% | 100% |  |  | 0.5% | 0.4% |  | 
3 | CCN1CCN(Cc2ccc(NC(=O)c3ccc(C)c(/C=C/c4cnc5[nH]ccc5c4Cl)c3)cc2C(F)(F)F)CC1 [HG-6-63-01, (E)-3-(2-(4-chloro-1H-pyrrolo[2,3-b]pyridin-5-yl)vinyl)-N-(4-((4-ethylpiperazin-1-yl)methyl)-3-(trifluoromethyl)phenyl)-4-methylbenzamide] | > 30% | 0.3% | > 30% |  | > 30% | 6.7% | > 30% | > 30% | 2.4% |  |  |  | 1.8% | 5.5%
